The values below come from US10988478B1, “Pyrazolo[1,5a]pyrimidine derivatives as IRAK4 modulators” (Genentech, Inc., priority 2015, dated 2021).

SMILES strings stand for the structures.

Sequence of human IRAK4 (Q9NWZ3 whole entry, the tested form may be a part): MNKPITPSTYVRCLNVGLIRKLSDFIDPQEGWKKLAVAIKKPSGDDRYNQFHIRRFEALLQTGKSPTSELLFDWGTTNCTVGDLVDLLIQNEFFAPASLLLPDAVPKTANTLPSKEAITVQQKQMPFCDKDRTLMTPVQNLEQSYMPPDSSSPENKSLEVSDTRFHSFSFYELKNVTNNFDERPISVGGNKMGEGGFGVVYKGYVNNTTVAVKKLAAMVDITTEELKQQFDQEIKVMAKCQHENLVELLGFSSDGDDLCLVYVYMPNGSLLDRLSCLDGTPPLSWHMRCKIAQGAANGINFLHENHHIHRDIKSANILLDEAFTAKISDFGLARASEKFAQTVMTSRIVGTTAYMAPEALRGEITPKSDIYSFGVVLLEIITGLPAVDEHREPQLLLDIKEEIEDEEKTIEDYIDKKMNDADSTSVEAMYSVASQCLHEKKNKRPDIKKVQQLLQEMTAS

The target in the assay is human IRAK4 (Homo sapiens (Human), UniProt Q9NWZ3). As to the kind of experiment: IRAK4 kinase inhibition, Transcreener fluorescence polarization ADP assay. Type of assay: biochemical. As to conditions: recombinant full-length His6-IRAK4; 125 uM ATP; 90 min; Ki computed using ATP Km 642 uM. How it is done:
Compounds were assayed for inhibition of human IRAK4 and IRAK1 catalytic activity using recombinant enzyme produced from insect cells. Full-length IRAK4 protein, carrying an N-terminal His6-Tag, was obtained from Life Technologies (Carlsbad, Calif., USA). The IRAK1 construct was produced internally and was comprised of IRAK1 residues Arg194 to Ser712, preceded by an NH2-terminal His6 tag and the coding sequence for glutathione-S-transferase.
Broadly, the Ki is a dissociation constant, usually derived from enzyme kinetics or from competition with a known ligand. As for `CC1(C)Cc2cc(NC(=O)c3cnn4cccnc34)c(N3CCN(CC4CCC4)CC3)cc2O1` [Example 466, N-(6-(4-(cyclobutylmethyl)piperazin-1-yl)-2,2-dimethyl-2,3-dihydrobenzofuran-5-yl)pyrazolo[1,5-a]pyrimidine-3-carboxamide], the Ki is 99 nM.

For the compound `CC1(C)Cc2cc(NC(=O)c3cnn4cccnc34)c(N3CCN(CC(F)F)CC3)cc2O1` [Example 8, N-[6-[4-(2,2-Difluoroethyl)piperazin-1-yl]-2,2-dimethyl-3H-benzofuran-5-yl]pyrazolo[1,5-a]pyrimidine-3-carboxamide], the Ki stood at 2.3 nM.

For the compound `CN(C)C1CCN(c2cc3c(cc2NC(=O)c2cnn4cccnc24)CC(C)(C)O3)CC1` [Example 532, N-[6-[4-(dimethylamino)-1-piperidyl]-2,2-dimethyl-3H-benzofuran-5-yl]pyrazolo[1,5-a]pyrimidine-3-carboxamide], the Ki was 7.2 nM.

As for `CC(C)(O)C1(C)Cc2cc(NC(=O)c3cnn4cccnc34)c(N3CCN(CC(N)=O)CC3)cc2O1` (centres unmarked) [Example 356, N-[6-[4-(2-amino-2-oxo-ethyl)piperazin-1-yl]-2-(1-hydroxy-1-methyl-ethyl)-2-methyl-3H-benzofuran-5-yl]pyrazolo[1,5-a]pyrimidine-3-carboxamide], the Ki was determined as 4 nM.

For `O=C(Nc1cc2c(cc1N1CCOCC1)C(=O)N(C1CCOC1)C2)c1cnn2cccnc12` (single isomer, unassigned) [Example 275, N-(6-morpholino-1-oxo-2-(tetrahydrofuran-3-yl)isoindolin-5-yl)pyrazolo[1,5-a]pyrimidine-3-carboxamide], the Ki worked out at 34 nM.

As for `C[C@@]1(CO)Cc2cc(NC(=O)c3cnn4cccnc34)c(C(F)F)cc2O1` [Example 73, N-[(2S)-6-(Difluoromethyl)-2-(hydroxymethyl)-2-methyl-3H-benzofuran-5-yl]pyrazolo[1,5-a]pyrimidine-3-carboxamide], the Ki stood at 360 nM.

`C[C@H](O)[C@H](F)CN1Cc2cc(NC(=O)c3cnn4cccnc34)c(N3CCOCC3)cc2C1=O` [Example 557, N-[2-[(2R,2S)-2-fluoro-3-hydroxy-butyl]-6-morpholino-1-oxo-isoindolin-5-yl]pyrazolo[1,5-a]pyrimidine-3-carboxamide]: the Ki worked out at 7.3 nM.

As to `Cc1cnc2c(C(=O)Nc3cc4c(cc3N3CCOCC3)OC(C)(C(F)F)C4)cnn2c1` (centres unmarked) [Example 144, N-(2-(Difluoromethyl)-2-methyl-6-morpholino-2,3-dihydrobenzofuran-5-yl)-6-methylpyrazolo[1,5-a]pyrimidine-3-carboxamide], the Ki is 13 nM.

Take `CN1CCCC(Oc2cc3c(cc2NC(=O)c2cnn4cccnc24)CC(C)(C)O3)C1` (stereo not drawn) [Example 304, N-(2,2-Dimethyl-6-((1-methylpiperidin-3-yl)oxy)-2,3-dihydrobenzofuran-5-yl)pyrazolo[1,5-α]pyrimidine-3-carboxamide]: the Ki is 720 nM.

In the case of `C[C@]1(CO)Cc2cc(NC(=O)c3cnn4cccnc34)c(N3C[C@@H]4[C@H](C3)[C@H]4C(N)=O)cc2O1` [Example 413, N-((R)-6-((1R,5S,6R)-6-carbamoyl-3-azabicyclo[3.1.0]hexan-3-yl)-2-(hydroxymethyl)-2-methyl-2,3-dihydrobenzofuran-5-yl)pyrazolo[1,5-a]pyrimidine-3-carboxamide], the inhibition constant Ki is 32 nM.

Turning to `CC1(C)Cc2cc(NC(=O)c3cnn4cccnc34)c(C3CC3)cc2O1` [Example 384, N-(6-Cyclopropyl-2,2-dimethyl-3H-benzofuran-5-yl)pyrazolo[1,5-a]pyrimidine-3-carboxamide], the Ki is 37 nM.

As for `CC1(CO)Cc2cc(NC(=O)c3cnn4cccnc34)c(N3CCC(F)(F)CC3)cc2O1` (centres unmarked) [Example 26, N-[6-(4,4-Difluoro-1-piperidyl)-2-(hydroxymethyl)-2-methyl-3H-benzofuran-5-yl]pyrazolo[1,5-a]pyrimidine-3-carboxamide], the Ki was found to be 5.1 nM.

In the case of `O=C1COc2cc(N3CCC(CO)CC3)c(NC(=O)c3cnn4cccnc34)cc2N1` [Example 2, N-(7-(4-(Hydroxymethyl)piperidin-1-yl)-3-oxo-3,4-dihydro-2H-benzo[b][1,4]oxazin-6-yl)pyrazolo[1,5-a]pyrimidine-3-carboxamide], the Ki came to 26 nM.

Regarding `Cc1cnc2c(C(=O)Nc3cc4c(cc3N3CCOCC3)O[C@@](C)(CO)C4)cnn2c1` [Example 29, (R)—N-(2-(hydroxymethyl)-2-methyl-6-morpholino-2,3-dihydrobenzofuran-5-yl)-6-methylpyrazolo[1,5-a]pyrimidine-3-carboxamide], the Ki was 9 nM.

As for `CC(=O)N1CCC2(CC1)Cc1cc(NC(=O)c3cnn4cccnc34)c(N3CCN(CC(N)=O)CC3)cc1O2` [Example 374, N-(1′-Acetyl-6-(4-(2-amino-2-oxoethyl)piperazin-1-yl)-3H-spiro[benzofuran-2,4′-piperidin]-5-yl)pyrazolo[1,5-a]pyrimidine-3-carboxamide], the Ki is 2 nM.

On to `C[C@]1(CO)Cc2cc(NC(=O)c3cnn4cccnc34)c(N3C[C@@H]4[C@H](C3)[C@@H]4C(N)=O)cc2O1` [Example 348, N-((R)-6-((1R,5S,6S)-6-carbamoyl-3-azabicyclo[3.1.0]hexan-3-yl)-2-(hydroxymethyl)-2-methyl-2,3-dihydrobenzofuran-5-yl)pyrazolo[1,5-a]pyrimidine-3-carboxamide], for which the Ki amounted to 890 nM.

Take `C[C@]1(CO)Cc2cc(NC(=O)c3cnn4cccnc34)c(OC(F)(F)F)cc2O1` [Example 171, (R)—N-(2-(Hydroxymethyl)-2-methyl-6-(trifluoromethoxy)-2,3-dihydrobenzofuran-5-yl)pyrazolo[1,5-a]pyrimidine-3-carboxamide]: the Ki was 38 nM.

With `CC(C)(O)[C@@]1(C)Cc2cc(NC(=O)c3cnn4cccnc34)c(O[C@H]3CC[C@@H](O)CC3)cc2O1` [Example 313, N-[(2R)-6-(cis-4-Hydroxycyclo-hexoxy)-2-(1-hydroxy-1-methyl-ethyl)-2-methyl-3H-benzofuran-5-yl]pyrazolo[1,5-a]pyrimidine-3-carboxamide], the Ki turned out to be 490 nM.

On to `C[C@]1(CO)Cc2cc(NC(=O)c3cnn4cccnc34)c(OCC(F)F)cc2O1` [Example 311, (R)-N-(6-(2,2-difluoroethoxy)-2-(hydroxymethyl)-2-methyl-2,3-dihydrobenzofuran-5-yl)pyrazolo[1,5-a]pyrimidine-3-carboxamide], for which the Ki was 10 nM.

`C[C@]1(CO)Cc2cc(NC(=O)c3cnn4cccnc34)c(N3C[C@H]4C[C@@H]3CO4)cc2O1` [Example 42, N—((R)-6-((1R,4R)-2-Oxa-5-azabicyclo[2.2.1]heptan-5-yl)-2-(hydroxymethyl)-2-methyl-2,3-dihydrobenzofuran-5-yl)pyrazolo[1,5-a]pyrimidine-3-carboxamide]: the Ki came out at 200 nM.

In the case of `COCC1CN(c2cc3c(cc2NC(=O)c2cnn4cccnc24)CC(C)(C)O3)CCO1` (centres unmarked) [Example 198, N-(6-(2-(methoxymethyl)morpholino)-2,2-dimethyl-2,3-dihydrobenzofuran-5-yl)pyrazolo[1,5-a]pyrimidine-3-carboxamide], the Ki came out at 140 nM.

On to `CC1(C)Cc2cc(NC(=O)c3cnn4cccnc34)c(N3CC4(CCCOC4)C3)cc2O1` [Example 194, N-[2,2-dimethyl-6-(6-oxa-2-azaspiro[3.5]nonan-2-yl)-3H-benzofuran-5-yl]pyrazolo[1,5-a]pyrimidine-3-carboxamide], for which the Ki was determined as 410 nM.

As for `CN1CC[C@@]2(Cc3cc(NC(=O)c4cnn5cccnc45)c(N4CCOCC4)cc3O2)C1` [Example 391, (S)—N-(1′-methyl-6-morpholino-3H-spiro[benzofuran-2,3′-pyrrolidin]-5-yl)pyrazolo[1,5-a]pyrimidine-3-carboxamide], the Ki is 31 nM.

For the compound `CC1(C)Cc2cc(NC(=O)c3cnn4cccnc34)c(-c3ccc(=O)[nH]c3)cc2O1` [Example 113, N-[2,2-Dimethyl-6-(6-oxo-1H-pyridin-3-yl)-3H-benzofuran-5-yl]pyrazolo[1,5-a]pyrimidine-3-carboxamide], the Ki is 320 nM.

Turning to `CC1(C)Oc2cc(NC(=O)c3cnn4cccnc34)c(N3CCOCC3)cc2C1O` (centres unmarked) [Example 358, N-(3-Hydroxy-2,2-dimethyl-5-morpholino-2,3-dihydrobenzofuran-6-yl)pyrazolo[1,5-a]pyrimidine-3-carboxamide], the Ki turned out to be 510 nM.

As to `CC(C)(O)C1(C)Cc2cc(NC(=O)c3cnn4cccnc34)c(N3CCC(CO)CC3)cc2O1` (centres unmarked) [Example 363, N-(6-(4-(hydroxymethyl)piperidin-1-yl)-2-(2-hydroxypropan-2-yl)-2-methyl-2,3-dihydrobenzofuran-5-yl)pyrazolo[1,5-a]pyrimidine-3-carboxamide], the inhibitory constant (Ki) came to 5.3 nM.

In the case of `CC1(CO)CCc2cc(NC(=O)c3cnn4cccnc34)c(N3CCOCC3)cc2O1` (centres unmarked) [Example 141, N-(2-(Hydroxymethyl)-2-methyl-7-morpholinochroman-6-yl)pyrazolo[1,5-a]pyrimidine-3-carboxamide], the Ki was determined as 16 nM.

On to `C[C@]1(CO)Cc2cc(NC(=O)c3cnn4cc(Cl)cnc34)c(N3CCN(CC(F)F)CC3)cc2O1` [Example 170, (R)-6-Chloro-N-(6-(4-(2,2-difluoroethyl)piperazin-1-yl)-2-(hydroxymethyl)-2-methyl-2,3-dihydrobenzofuran-5-yl)pyrazolo[1,5-a]pyrimidine-3-carboxamide], for which the Ki turned out to be 3 nM.

On to `CC(C)(O)[C@H](F)CN1Cc2cc(NC(=O)c3cnn4cccnc34)c(N3CCOCC3)cc2C1=O` [Example 139, (R)—N-(2-(2-Fluoro-3-hydroxy-3-methylbutyl)-6-morpholino-1-oxoisoindolin-5-yl)pyrazolo[1,5-a]pyrimidine-3-carboxamide], for which the Ki stood at 1.5 nM.
